Data published in patent publication US20260374818A1, “CATIONIC PEPTIDES WITH BROAD SPECTRUM ACTIVITY” (priority 2023, published 2026).
Where a SMILES comes first, the peptide text is derived from it. [ ]: non-standard residue; d: D form.

Key:
P. aeruginosa LESB58 [1] = experiment: Murine model of abscess infections; type: in vivo, murine; Pseudomonas aeruginosa
[2] = test system: PAO1 biofilms on human skin organoid; experiment: Skin organoid biofilm infection model, peptide solution, PAO1; type: cell-based, Pseudomonas aeruginosa; details: peptide solution 4 hrs (FIG. 3B)
N/TERT keratinocytes = experiment: Cytotoxicity (LDH release), N/TERT keratinocytes
MRSA preformed biofilms = experiment: Biofilm eradication of 24-hr preformed biofilms (TTC metabolic dye), MRSA; type: cell-based, methicillin resistant Staphylococcus aureus; details: 24-hr preformed biofilms treated overnight
[3] = test system: peripheral blood mononuclear cells (PBMCs); experiment: Cytotoxicity (LDH release), PBMCs
[4] = test system: MRSA biofilms on N/TERT epithelial skin; experiment: Skin organoid biofilm model, peptide-loaded collagen dressings, MRSA; type: cell-based, methicillin resistant Staphylococcus aureus; details: compared to DJK-5 and ciprofloxacin
MRSA USA300 biofilms = experiment: Biofilm inhibition by >95% pure peptides (crystal violet), MRSA; type: cell-based, methicillin resistant Staphylococcus aureus; details: for IC50: MRSA, 24 hours
[5] = test system: P. aeruginosa PAO1 biofilms; details: for IC50: read-out: Biofilm Inhibition IC50, PAO1, 24 hours
[6] = test system: 3-day-old oral plaque (multispecies) biofilms; experiment: Oral plaque biofilm model, long-term (1-3 days) exposure, dead cell volume; type: cell-based; details: daily for 3 days, compared to DJK5 (FIG. 16A)
[7] = test system: human bronchiolar epithelial cells (HBEs); experiment: Cytotoxicity (LDH release), human bronchiolar epithelial cells
PAO1 preformed biofilms = details: for IC50: read-out: Biofilm Eradication IC50, PAO1, 24-hr preformed biofilms treated overnight, TTC
[8] = test system: MRSA biofilms on human skin organoid; experiment: Skin organoid biofilm infection model, peptide solution, MRSA; type: cell-based, methicillin resistant Staphylococcus aureus; details: peptide solution 4 hrs (FIG. 3A)
[9] = test system: P. aeruginosa biofilms on N/TERT epithelial skin; experiment: Skin organoid biofilm model, peptide-loaded collagen dressings, P. aeruginosa; type: cell-based, Pseudomonas aeruginosa; details: compared to DJK-5 and ciprofloxacin
[10] = Peptide aggregation in RPMI + 10% FBS with PBMCs (microscopy); type: physicochemical; details: 50 μg/ml, overnight
Experimental: Peptide Aggregation: Peptide aggregation was assessed qualitatively by examining samples of peptides mixed with PBMCs following overnight incubation at 37 °C and 5% CO2. All samples were prepared in RPMI media containing 10% FBS the same manner as the cytotoxicity assays described above. Visualization of aggregates was done using a Nikon Eclipse TS100 Inverted Microscope at 10× magnification.
In aggregation studies, peptides were added to PBMCs in RPMI media containing 10% FBS and incubated overnight at 37 °C in 5% CO2.
The peptides were also evaluated for their tendency to aggregate when added to RPMI tissue culture media containing 10% fetal bovine serum in the presence of PBMCs. Peptides were added to PBMCs in RPMI media containing 10% FBS and incubated overnight at 37 °C in 5% CO2. […] Compared to a highly aggregation prone peptide, 1018 [Haney, E. F., et al. (2017). Aggregation and its influence on the immunomodulatory activity of synthetic innate defense regulator peptides.
As with the DJK-5 derivatives above, the AB103-D derivatives were evaluated for their tendency to aggregate when added to RPMI tissue culture media containing 10% fetal bovine serum in the presence of PBMCs. Peptides were added to PBMCs in RPMI media containing 10% FBS and incubated overnight at 37 °C in 5% CO2.

P. aeruginosa LESB58 [11] = experiment: Murine sinusitis model, P. aeruginosa; type: in vivo, mouse; Pseudomonas aeruginosa; details: P. aeruginosa LESB58, 0.1 mg dose, compared to DJK5
Source text: (§1) FIGS. 15A-15I show peptides AB101-D, AB102-D and AB103-D compared to DJK5 in a murine sinusitis model of bacterial infections. MRSA USA300, nasal cavity (FIG. 15A) P. aeruginosa LESB58 (FIG. 15B and FIG. 15C, nasal cavity); MRSA USA300, lung tissue (FIG. 15D) P. aeruginosa LESB58 (FIG. 15E and FIG. 15F, lung tissue); and MRSA USA300, weight change (FIG. 15G) P. aeruginosa LESB58 (FIG. 15H and FIG. 15I, weight change).
(§2) A murine sinusitis model of bacterial infections in the nasal cavity of mice [Alford et al. (2021). Murine model of sinusitis infection for screening antimicrobial and immunomodulatory therapies. Frontiers in Cellular and Infection Microbiology., 11, 621081] was used to determine the efficacy of D-amino acid peptides AB101-D, AB102-D and AB103-D compared to DJK5. […]. Treatment was applied either as dropwise administration of a peptide solution (20 μl) to the infected naris of a mouse (FIGS. 15A, 15B, 15D, 15E, 15G, 15H) or peptide was delivered using a Respimat® inhaler device (FIGS. 15C, 15F, 15I). Mice were monitored and weighed once daily for up to three days then euthanized prior to collection of nasal lavage fluid and lung tissue for bacterial enumeration. The limit of detection is shown by the dotted line at log CFU=2. […] Accordingly, the results indicated enhanced efficacy of D-amino acid peptides AB101-D, AB102-D and AB103-D compared to DJK5 in this murine model.

MRSA USA300 = experiment: Murine sinusitis model, MRSA; type: in vivo, mouse; methicillin resistant Staphylococcus aureus; details: MRSA USA300, 0.1 mg dose, compared to DJK5
Source text: as §1, §2

[12] = test system: P. aeruginosa PAO1 planktonic cells; experiment: Planktonic growth inhibition by pure AB103-D derivatives, P. aeruginosa; type: cell-based, Pseudomonas aeruginosa
Experimental: (§3) The effect of peptide on bacterial and biofilm growth was assessed using the biofilm inhibition assay [Haney, E. F., Trimble, M. J., & Hancock, R. E. W. (2021) FIGS. 20A-20D. Microtiter plate assays to assess antibiofilm activity against bacteria. Nature Protocols, 16(5), 2615-2632]. The effect of peptide on planktonic growth and biofilm growth of MRSA USA300 (FIG. 20A, FIG. 20C) and P. aeruginosa PAO1 (FIGS. 20B, 20D) was assessed and compared to the activity seen for AB103-D (gray stars) and DJK5 (gray open circles). Data shown are the average of three biological replicates. Error bars have been omitted for clarity. […]. The results indicated enhanced antibiofilm and antibacterial activity of AB103-D derivatives compared to DJK5.

[13] = test system: MRSA USA300 planktonic cells; experiment: Planktonic growth inhibition by pure AB103-D derivatives, MRSA; type: cell-based, methicillin resistant Staphylococcus aureus
Experimental: as §3

[14] = test system: P. aeruginosa PAO1 biofilms; experiment: Biofilm inhibition by SPOT-synthesized AB103-D variants (crystal violet), P. aeruginosa; type: cell-based, Pseudomonas aeruginosa; details: P. aeruginosa PAO1, SPOT peptides

## CC[C@@H](C)[C@@H](NC(=O)[C@@H](CCCNC(=N)N)NC(=O)[C@H](N)CCCCN)C(=O)N[C@H](CCCNC(=N)N)C(=O)N[C@H](Cc1c[nH]c2ccccc12)C(=O)N[C@@H](C(=O)N[C@@H](C(=O)N[C@H](CC(C)C)C(=O)N[C@H](CCCNC(=N)N)C(=O)N[C@@H](C(=O)N[C@@H](C(=O)N[C@H](CCCNC(=N)N)C(N)=O)[C@H](C)CC)C(C)C)[C@H](C)CC)C(C)C [AB101-D, krirwvilrvir-NH2] (H-[dK][dR][dI][dR][dW][dV][dI][dL][dR][dV][dI][dR]-NH2)
P. aeruginosa LESB58 [1]
  Abscess size: reduced abscess size
[2]
  Antibiofilm activity on skin organoid: excellent antibiofilm activity
N/TERT keratinocytes
  Cytotoxicity (LDH): low toxicity
MRSA preformed biofilms
  IC50: 1.4 µM
[3]
  Cytotoxicity (LDH): low toxicity
[4]
  Antibiofilm activity from collagen dressing: clearly superior activity to both DJK-5 and ciprofloxacin
MRSA USA300 biofilms
  IC50: 0.27 µM
[5]; P. aeruginosa
  Biofilm inhibition activity compared to DJK5: ≥ 4 fold
[5]; crystal violet
  IC50: 1.1 µM
[6]; 10 μg/ml
  Proportion of dead biofilm cells: superior to DJK5 at killing bacteria cells
[6]; 1 or 5 μg/ml
  Proportion of dead biofilm cells: killed more of the biofilm cells
[7]
  Cytotoxicity (LDH): low toxicity
PAO1 preformed biofilms; P. aeruginosa, compared with DJK5
  Enhanced antibiofilm eradication activity: > 2 fold
PAO1 preformed biofilms
  IC50: 1.9 µM
[8]
  Antibiofilm activity on skin organoid: excellent antibiofilm activity
[9]
  Antibiofilm activity from collagen dressing: clearly superior activity to both DJK-5 and ciprofloxacin
[10]
  Peptide aggregation: some small aggregates

## CC[C@@H](C)[C@@H](NC(=O)[C@@H](CCCNC(=N)N)NC(=O)[C@@H](CCCCN)NC(=O)[C@@H](CCCNC(=N)N)NC(=O)[C@H](NC(=O)[C@H](NC(=O)[C@@H](CCCNC(=N)N)NC(=O)[C@H](NC(=O)[C@H](N)CCCNC(=N)N)C(C)C)C(C)C)[C@H](C)CC)C(=O)N[C@H](CCCNC(=N)N)C(=O)N[C@H](Cc1c[nH]c2ccccc12)C(=O)N[C@@H](C(N)=O)C(C)C [AB102-D, rvrvirkrirwv-NH2] (H-[dR][dV][dR][dV][dI][dR][dK][dR][dI][dR][dW][dV]-NH2)
P. aeruginosa LESB58 [11]
  Bacteria in nasal cavity and lungs: reduced the amount of bacteria in the nasal cavity and lungs of mice much more than DJK5 treatment
[2]
  Antibiofilm activity on skin organoid: excellent antibiofilm activity
N/TERT keratinocytes
  Cytotoxicity (LDH): low toxicity
MRSA USA300
  Bacteria in nasal cavity and lungs: reduced the amount of bacteria in the nasal cavity and lungs of mice much more than DJK5 treatment
MRSA preformed biofilms
  IC50: 3.7 µM
[3]
  Cytotoxicity (LDH): low toxicity
MRSA USA300 biofilms
  IC50: 0.15 µM
[5]; crystal violet
  IC50: 16.5 µM
[6]; 1 or 5 μg/ml
  Proportion of dead biofilm cells: killed more of the biofilm cells
[7]
  Cytotoxicity (LDH): low toxicity
PAO1 preformed biofilms
  IC50: 23 µM
[8]
  Antibiofilm activity on skin organoid: excellent antibiofilm activity
[10]
  Peptide aggregation: No appreciable aggregation

## CC[C@@H](C)[C@@H](NC(=O)[C@@H](CCCNC(=N)N)NC(=O)[C@@H](CCCNC(=N)N)NC(=O)[C@@H](Cc1c[nH]c2ccccc12)NC(=O)[C@@H](CCC(N)=O)NC(=O)[C@H](NC(=O)[C@@H](CCCNC(=N)N)NC(=O)[C@H](NC(=O)[C@H](NC(=O)[C@@H](CCCNC(=N)N)NC(=O)[C@H](NC(=O)[C@H](N)CCCNC(=N)N)C(C)C)C(C)C)[C@H](C)CC)C(C)C)C(N)=O [AB113-D, rvrvirvqwrri] (H-[dR][dV][dR][dV][dI][dR][dV][dQ][dW][dR][dR][dI]-NH2)
MRSA USA300 biofilms; MRSA USA300 biofilms, >95% pure peptides, 10% TSB + 0.1% glucose
  minimum inhibitory concentration of peptide that inhibited at least 90% of biofilm growth (MBIC90): 0.5 µM
[12]
  Planktonic growth inhibition: among the most active
[5]; P. aeruginosa PAO1 (FIG. 20D)
  Biofilm growth inhibition: among the most active
[5]; P. aeruginosa PAO1 biofilms, >95% pure peptides, crystal violet, BM2 minimal media
  minimum inhibitory concentration of peptide that inhibited at least 90% of biofilm growth (MBIC90): 2 µM
[5]; PAO1, >95% pure peptides
  More active than AB103-D against PAO1 biofilms: up to 4 fold
[13]
  Planktonic growth inhibition: among the most active against planktonic cells
[14]
  Activity against PAO1 biofilms compared to AB103-D: activity superior to that of AB103-D
